Read-outs that look alike come from different tables or passages of the source.
Experiments:
NHEJ activity = assay: Reconstituted cell-free NHEJ assay (MCF7 nuclear extract); type: biochemical, human
Description: MCF7 human breast cancer cells (5-10 x 10^7 each) were incubated in 5 pellet volumes of cold hypotonic buffer (10 mM Hepes-KOH, pH 7.5, 1.5 mM MgCl2, 5 mM KCl, and 0.5 mM DTT) for 20 minutes and were homogenized in a tight-fitting glass dounce homogenizer for 10-20 strokes. The nuclei were then collected by low-speed centrifugation and nuclear proteins were extracted by high-salt buffer (50 mM Tris-HCl, pH 7.5, 1 M KCl, 2 mM EDTA, 1 mM DTT, and protease inhibitors). The extracted nuclear proteins were dialyzed against 1 L of dialysis buffer (20 mM Tris-HCl, pH 8.0, 20% glycerol, 0.1 M KOAc, 0.5 mM EDTA, and 1 mM DTT) for 1 hour and were used for the in vitro NHEJ assay.
(§1) Nuclear protein (10-20 μg) prepared above was pre-treated with compounds as indicated on ice for 15 minutes. Twenty-five nanograms of EcoRI-digested pBluescript DNA (Stratagene, La Jolla, CA) were then added and the mixture was adjusted to 20 μL final volume in NHEJ buffer (50 mM Hepes-KOH pH 8.0, 40 mM KOAc, 1 mM Mg(OAc)2, 1 mM ATP, 0.1 mg/mL BSA, and 1 mM DTT). After incubation at 25°C for 60 minutes, the reaction was terminated by incubation with 1 μg/mL RNase A for 10 minutes followed by treatment with 2 mg/mL Protease K in 0.5% SDS at 55°C for 30 minutes. The reactions were run onto 0.8% agarose and the gel was stained with Sybr Green (S756, Invitrogen, Carlsbad, CA). For Western blots, an aliquot of the same reaction mixture described above was subjected to SDS-PAGE, transferred to the PVDF membrane, and immunoblotted with indicated antibodies.

mTOR kinase = mTOR kinase (Homo sapiens, UniProt P42345); assay: mTOR kinase enzyme assay; type: biochemical; conditions: average ± SEM
Description: (§2) mTOR, DNA-PK and PI3K-alpha assays were to determine percent inhibition. An IC50 value was then
(§3) performed as reported previously. estimated. […]

DNA-PK = DNA-PK (Homo sapiens, UniProt P78527); assay: DNA-PK enzyme assay; type: biochemical; conditions: average ± SEM; CC214-1 n=2
Description: as §2, §3

pDNA-PK S2056 = assay: Western blot of cell-free NHEJ reaction (MCF7 nuclear extract); type: biochemical, human
Description: as §1

ATR [1] = target: T1, ATR (Homo sapiens, UniProt Q13535); assay: ATR 33P radioactive kinase assay (immunoprecipitated FLAG-ATR); type: biochemical
T1 construct: made in house; host or cells: HEK293 (293FT cells, Invitrogen R700-07), transient transfection, immunoprecipitation on Protein G Sepharose
T1 sequence (Q13535 whole entry): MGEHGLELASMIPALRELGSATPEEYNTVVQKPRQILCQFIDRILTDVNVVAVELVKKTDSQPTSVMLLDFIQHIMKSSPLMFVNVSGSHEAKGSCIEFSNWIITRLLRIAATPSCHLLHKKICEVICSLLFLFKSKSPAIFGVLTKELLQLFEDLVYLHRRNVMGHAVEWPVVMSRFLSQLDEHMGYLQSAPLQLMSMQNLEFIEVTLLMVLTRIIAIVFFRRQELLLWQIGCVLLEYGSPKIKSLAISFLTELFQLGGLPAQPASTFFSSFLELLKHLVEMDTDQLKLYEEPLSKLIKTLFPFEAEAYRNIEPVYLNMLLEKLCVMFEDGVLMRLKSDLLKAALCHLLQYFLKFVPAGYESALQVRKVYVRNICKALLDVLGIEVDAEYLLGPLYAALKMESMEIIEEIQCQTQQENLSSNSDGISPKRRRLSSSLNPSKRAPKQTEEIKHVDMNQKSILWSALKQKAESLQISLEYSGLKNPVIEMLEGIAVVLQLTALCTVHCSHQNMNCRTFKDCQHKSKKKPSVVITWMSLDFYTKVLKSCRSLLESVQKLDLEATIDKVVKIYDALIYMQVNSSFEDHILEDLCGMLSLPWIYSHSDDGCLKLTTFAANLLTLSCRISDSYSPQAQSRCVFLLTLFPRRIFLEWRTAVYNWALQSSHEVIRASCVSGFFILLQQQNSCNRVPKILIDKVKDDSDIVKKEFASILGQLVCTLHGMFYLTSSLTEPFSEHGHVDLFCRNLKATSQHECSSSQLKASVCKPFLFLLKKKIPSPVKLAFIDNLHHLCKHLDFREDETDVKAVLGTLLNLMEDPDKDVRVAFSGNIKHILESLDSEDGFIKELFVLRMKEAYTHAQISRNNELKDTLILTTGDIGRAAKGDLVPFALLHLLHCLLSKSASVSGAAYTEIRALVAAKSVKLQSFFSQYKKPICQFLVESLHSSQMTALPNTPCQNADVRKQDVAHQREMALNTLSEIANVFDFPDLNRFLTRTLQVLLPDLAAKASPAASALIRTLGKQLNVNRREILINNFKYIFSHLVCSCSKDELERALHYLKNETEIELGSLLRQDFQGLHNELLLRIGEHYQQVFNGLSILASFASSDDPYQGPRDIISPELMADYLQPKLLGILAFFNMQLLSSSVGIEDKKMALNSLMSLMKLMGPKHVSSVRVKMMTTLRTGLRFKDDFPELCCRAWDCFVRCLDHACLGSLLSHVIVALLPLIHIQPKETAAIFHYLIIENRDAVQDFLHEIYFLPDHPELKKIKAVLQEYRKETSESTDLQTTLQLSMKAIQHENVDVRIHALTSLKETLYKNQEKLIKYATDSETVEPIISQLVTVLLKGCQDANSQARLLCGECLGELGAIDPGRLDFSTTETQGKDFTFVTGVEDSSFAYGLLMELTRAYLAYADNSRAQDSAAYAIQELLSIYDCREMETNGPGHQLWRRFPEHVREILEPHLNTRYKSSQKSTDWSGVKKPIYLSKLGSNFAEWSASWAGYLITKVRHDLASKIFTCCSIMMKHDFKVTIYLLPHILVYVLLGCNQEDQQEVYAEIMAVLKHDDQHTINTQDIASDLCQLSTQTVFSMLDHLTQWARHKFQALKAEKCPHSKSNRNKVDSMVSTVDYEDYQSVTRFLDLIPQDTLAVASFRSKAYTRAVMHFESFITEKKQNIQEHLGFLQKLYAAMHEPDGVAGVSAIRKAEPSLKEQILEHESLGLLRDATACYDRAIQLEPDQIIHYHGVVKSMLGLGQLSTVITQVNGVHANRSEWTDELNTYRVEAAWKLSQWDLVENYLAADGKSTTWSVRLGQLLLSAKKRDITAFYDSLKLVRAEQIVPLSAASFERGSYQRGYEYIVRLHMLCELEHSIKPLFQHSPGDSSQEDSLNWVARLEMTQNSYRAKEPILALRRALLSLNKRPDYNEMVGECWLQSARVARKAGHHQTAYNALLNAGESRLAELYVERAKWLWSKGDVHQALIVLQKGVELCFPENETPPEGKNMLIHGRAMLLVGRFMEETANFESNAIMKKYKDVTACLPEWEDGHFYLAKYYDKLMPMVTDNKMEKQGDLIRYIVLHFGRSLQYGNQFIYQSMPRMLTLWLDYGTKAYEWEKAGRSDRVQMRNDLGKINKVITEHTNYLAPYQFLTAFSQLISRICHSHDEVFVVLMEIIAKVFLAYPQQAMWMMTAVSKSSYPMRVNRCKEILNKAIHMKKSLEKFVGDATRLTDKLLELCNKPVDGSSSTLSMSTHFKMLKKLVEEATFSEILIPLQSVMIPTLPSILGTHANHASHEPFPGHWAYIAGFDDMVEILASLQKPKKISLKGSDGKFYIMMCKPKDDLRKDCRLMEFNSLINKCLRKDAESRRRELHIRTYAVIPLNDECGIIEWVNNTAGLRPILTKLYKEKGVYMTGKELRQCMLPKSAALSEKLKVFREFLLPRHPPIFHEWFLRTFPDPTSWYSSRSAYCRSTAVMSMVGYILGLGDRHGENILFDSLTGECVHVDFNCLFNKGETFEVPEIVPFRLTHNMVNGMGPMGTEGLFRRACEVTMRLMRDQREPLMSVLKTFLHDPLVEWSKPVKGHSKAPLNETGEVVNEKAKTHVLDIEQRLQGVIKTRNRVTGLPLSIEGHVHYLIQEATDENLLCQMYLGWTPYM
Description: deficient cell growth in vitro […]
incorporated in the corresponding no inhibitor control mTOR, DNA-PK and PI3K-alpha assays were to determine percent inhibition. An IC50 value was then performed as reported previously. estimated.
(§4) ATM and ATR assay and IC50 determination Cellular NHEJ assay
(§5) HA-ATM and FLAG-ATR (HA-labeled ATM, and The experimental design is illustrated in FLAG-labeled ATR) were each transiently expressed in Supplementary Figure 4. Cal-51 breast cancer cells HEK293 cells (293FT cells, Invitrogen Cat: R700-07) were separately transfected with pEGFP plasmid (6085-using Lipofectamine as transfection reagent. Cells were 1, Clontech, Mountain View, CA) digested with either harvested 6 days post transfection and spun down to EcoRI (to measure NHEJ) or StuI (to measure transfection separate cells from media. Cells were then lysed using a efficiency) using a Amaxa cell line nuclearfector kit V lysis buffer (50 mM Tris buffer, (Tris(hydroxylmethyl)- (CCA-1003, Lonza). Immediately after the transfection, aminomethane, pH 7.5), 100 mM NaCl, 50 mM βGOP, the cells were treated with DMSO or compounds at 10% Glycerol, 0.5% Tween 20, 1 mM EDTA, 25 mM indicated concentrations for 24 hours and GFP-positive sodium fluoride (NaF), 20 nM microcystine, 2 mM cells were counted under a fluorescent microscope. […]

[2] = system: NHEJ in MDA-MB-231 breast cancer cells; assay: 384-well image-based cellular NHEJ assay; type: cell-based; conditions: Homo sapiens; MDA-MB-231, n=3
Source text: as §4
as §5, with “microscope. NHEJ phenylmethylsulfonylfluoride (PMSF) and protease activity was calculated by the number of GFP-positive inhibitor cocktail) followed by sonication 3 times and a cells in cells transfected with pEGFP-EcoRI divided by final spin at 20,000 rpm for 30 minutes to generate a clear that in cells transfected with pEGFP-StuI, multiplied by lysate. To perform the immunoprecipitation, enzymes were 100.” for “microscope.”
(§6) or FLAG tags. Beads plus enzymes were then washed 3 developed. Different cell lines were transfected using times with lysis buffer and spun down at 1000 rpm for the procedure described above and subsequently seeded 1 minute. Beads plus enzymes were resuspended in lysis into 384-well plates at optimized density for individual buffer and kept at 4°C until assay. Assays for ATM and cell lines. Cells were then treated with compounds at ATR were conducted in a 33P radioactive assay format. increasing concentrations. GFP+ cells were imaged Assay buffer contained the following reagents: 1 mg/mL and quantitated using the IncuCyte (Essen Bioscience, GST-p53 (glutathione S-transferase–p53 fusion protein) Ann Arbor, MI). NHEJ activity was then normalized substrate (expressed in-house), 20 μg/mL calf thymus to the DMSO control and fitted to the Sigmoidal Dose-DNA activator (Sigma), 100 μg/mL BSA, 200 μM EGTA Response Model (IDBS XLFit Model 205; London, UK)

NHEJ in Cal-51 cells = assay: 384-well image-based cellular NHEJ assay; type: cell-based; conditions: Homo sapiens; Cal-51, n=3
Source text: as §4
as §5, with “microscope. NHEJ phenylmethylsulfonylfluoride (PMSF) and protease activity was calculated by the number of GFP-positive inhibitor cocktail) followed by sonication 3 times and a cells in cells transfected with pEGFP-EcoRI divided by final spin at 20,000 rpm for 30 minutes to generate a clear that in cells transfected with pEGFP-StuI, multiplied by lysate. To perform the immunoprecipitation, enzymes were 100.” for “microscope.”
as §6

[3] = system: NHEJ in PC3 prostate cancer cells; assay: 384-well image-based cellular NHEJ assay; type: cell-based; conditions: Homo sapiens; PC3, n=3
Source text: as §4
as §5, with “microscope. NHEJ phenylmethylsulfonylfluoride (PMSF) and protease activity was calculated by the number of GFP-positive inhibitor cocktail) followed by sonication 3 times and a cells in cells transfected with pEGFP-EcoRI divided by final spin at 20,000 rpm for 30 minutes to generate a clear that in cells transfected with pEGFP-StuI, multiplied by lysate. To perform the immunoprecipitation, enzymes were 100.” for “microscope.”
as §6

[4] = system: NHEJ in HCT116 colorectal cancer cells; assay: 384-well image-based cellular NHEJ assay; type: cell-based; conditions: Homo sapiens, HCT-116; HCT116, n=3
Source text: as §4
as §5, with “microscope. NHEJ phenylmethylsulfonylfluoride (PMSF) and protease activity was calculated by the number of GFP-positive inhibitor cocktail) followed by sonication 3 times and a cells in cells transfected with pEGFP-EcoRI divided by final spin at 20,000 rpm for 30 minutes to generate a clear that in cells transfected with pEGFP-StuI, multiplied by lysate. To perform the immunoprecipitation, enzymes were 100.” for “microscope.”
as §6

[5] = system: NCI-H1975 and SW1573 cells; assay: Clonogenic assay alone or with etoposide; type: cell-based, human; conditions: for combination with 6.8 μM etoposide on colony formation: 10 μM compound, 4 hours; for effect on cell survival, single agent: 4 hours treatment alone
Description: Media were changed every three days. Plates were incubated for a total of about two weeks then fixed and stained using the DIFF QUIK staining kit. Colonies were imaged and counted.

pChk2 T68 = assay: Western blot of cell-free NHEJ reaction (MCF7 nuclear extract); type: biochemical, human; conditions: MCF7 nuclear extract, 0.05, 0.5 or 5 μM
Description: as §1

pATM S1981 = assay: as above; type: biochemical, human; conditions: MCF7 nuclear extract with linear dsDNA
Description: as §1

[6] = target: T2, DNA-PKcs, XRCC4 and DNA ligase IV on DNA (Homo sapiens, UniProt P78527); assay: DNA end binding assay (MCF7 nuclear extract); type: biochemical; conditions: 5 μM, MCF7 nuclear extract, 10, 30, 60 minutes
T2 construct: endogenous in cells; host or cells: MCF7 nuclear extract
Source text: One kb of DNA fragment, including an EcoRI sequence in the middle, was amplified by PCR using pEGFP as a template and a pair of biotinylated EGFP primers (5′-biotin-[…]-3′ and 5′-biotin-[…]-3′: Valuegene, San Diego, CA). The amplified DNA fragment was cleaved by EcoRI to produce two 0.5 kb biotinylated DNA fragments, and was purified using the QIAquick PCR purification kit (Qiagen). […] An aliquot of the reaction was removed at each time point to separate the supernatant and the beads. The supernatant was subjected to SDS-PAGE and immunoblotting with indicated antibodies. The beads were washed twice with 250 μL of IP buffer (25 mM Hepes-KOH, pH 7.5, 100 mM NaCl, 20% glycerol, 5 mM EDTA, 1 mM DTT, 0.05% Nonidet P-40, 10 mM NaF, and protease inhibitor mixture) and subjected to SDS-PAGE and immunoblotting with indicated antibodies.

ATR [7] = target: T1, ATR; design: method as in earlier work; conditions: Lit. reported value ref 3; cited from earlier work
Rad51-foci in LoVo cells = assay: Rad51-foci immunofluorescence (homologous recombination); type: cell-based, human
ATM = target: T3, ATM (Homo sapiens, UniProt Q13315); design: method as in earlier work; conditions: Lit. reported value ref 3; cited from earlier work
T3 construct: made in house; host or cells: HEK293 (293FT cells, Invitrogen R700-07), transient transfection, immunoprecipitation on Protein G Sepharose

[8] = concentration series (0.05 to 5 μM)

Compound | IC50 (mTOR kinase) | IC50 (DNA-PK) | inhibition of pDNA-PK S2056, cell-free (pDNA-PK S2056) | IC50 [2] | IC50 (NHEJ in Cal-51 cells) | IC50 [3] | IC50 [4] | combination with 6.8 μM etoposide on colony formation [5] | effect on cell survival, single agent [5] | inhibition of NHEJ activity, cell-free (NHEJ activity; [8]) | inhibition of pChk2 T68, cell-free (pChk2 T68) | inhibition of pATM S1981, cell-free (pATM S1981) | other results
O=c1[nH]c2ncc(-c3ccc(-c4nc[nH]n4)cc3)nc2n1CCC1CCOCC1 [CC214-1, 6-(4-(1H-1,2,4-triazol-3-yl)phenyl)-1-(2-(tetrahydro-2H-pyran-4-yl)ethyl)-1,3-dihydro-2H-imidazo[4,5-b]pyrazin-2-one] | 0.002 ± 0.0002 µM | 0.141 µM | to a smaller extent |  |  |  |  |  |  |  |  |  | inhibition of NHEJ activity, cell-free (NHEJ activity; 5 μM): Minimal inhibition
CC(C)(O)c1ccc(-c2cnc3c(n2)N(CC2CCOCC2)CC(=O)N3)cn1 [CC214-2, 6-(6-(2-hydroxypropan-2-yl)pyridin-3-yl)-4-((tetrahydro-2H-pyran-4-yl)methyl)-3,4-dihydropyrazino[2,3-b]pyrazin-2(1H)-one] |  | > 10 µM | did not inhibit | > 10 µM | > 10 µM | > 10 µM | > 10 µM | synergy was not observed | minimal effect on cell survival | not changed |  |  | IC50 (ATR [1]): > 3 µM
O=c1cc(-c2cccc3c2Sc2ccccc2S3)oc(N2CCOCC2)c1 [KU55933, 2-(4-morpholinyl)-6-(1-thianthrenyl)-4H-pyran-4-one] |  |  | not DNA-PK phosphorylation |  |  |  |  |  |  | did not inhibit | concentration-dependent inhibition | efficiently inhibited | 
O=c1cc(N2CCOCC2)oc2c(-c3cccc4c3sc3ccccc34)cccc12 [NU7441, 8-(4-dibenzothienyl)-2-(4-morpholinyl)-4H-1-benzopyran-4-one] | 1.64 ± 0.2 µM |  | also inhibited | 0.63 ± 0.08 µM | 2.56 ± 0.84 µM | 1.03 ± 0.17 µM | 6.22 ± 6.76 µM | synergistic effect | minimal effect on cell survival | Inhibition of NHEJ was also observed | also inhibited | reduction | DNA-PKcs, XRCC4 and DNA ligase IV bound to DNA over time [6]: retained from 10 minutes through the end of the reaction at 60 minutes; IC50 (ATR [7]): > 100 µM; Rad51-foci positive nuclei (HR efficiency) (Rad51-foci in LoVo cells; 5 μM compound with 0.1 μM doxorubicin): 10.3%; IC50 (ATM): > 100 µM
COc1cccc2c1C(=O)c1c(O)c3c(c(O)c1C2=O)C[C@@](O)(C(=O)CO)C[C@@H]3O[C@H]1C[C@H](N)[C@H](O)[C@H](C)O1 [doxorubicin] |  |  |  |  |  |  |  |  |  |  |  |  | Rad51-foci positive nuclei (HR efficiency) (Rad51-foci in LoVo cells; 0.1 μM doxorubicin only): 24%
COc1cc([C@@H]2c3cc4c(cc3[C@@H](O[C@@H]3O[C@@H]5CO[C@@H](C)O[C@H]5[C@H](O)[C@H]3O)[C@H]3COC(=O)[C@H]23)OCO4)cc(OC)c1O [etoposide] |  |  |  |  |  |  |  |  | substantially impairs survival |  |  |  | 
